Data as given in patent US20060052248A1, “Use of a substance with oxytocin activity in order to stimulate plant growth” (priority 2001, published 2006).

Assays:
Assay type in all cases: in vivo
[1] = tested on: winter wheat (Triticum sativum); experiment: Germination test, winter wheat seeds
Procedure: (§1) Statistical analysis was performed by means of 2-way ANOVA followed by Bonferoni's test for post hoc comparison. Results are given as mean values. Differences in the number of germinated seeds, coleoptile length, root length (Example 1) and growth of lettuce (Example 2) were assessed by Student's t-test for independent means. Results were considered significant when p<0.05. In each of 10 Petri dishes with a diameter of 10 cm, 100 seeds of winter wheat (Triticum sativum) are placed together with two filter papers. To five of the Petri dishes is added 4.5 ml of a 1 μg/ml aqueous solution of oxytocin. To the other five Petri dishes is added the same amount of tap water. All ten Petri dishes are placed in darkness for germination during fourteen days at a temperature of 18° C.

[2] = tested on: bent (Agrostis tenuis); experiment: Germination test, bent seeds
Procedure: as §1, with “seeds of bent (Agrostis tenuis) are placed” for “seeds of winter wheat (Triticum sativum) are placed”, “dishes are then placed in” for “dishes are placed in”

[3] = tested on: lettuce (Lactuca sativa), sort "Calgary"; experiment: Growth test, lettuce in nutrient solution; conditions: for Root, dm / Shoot, dm: dry weight/fresh weight; for Root length / Root, dw / Root, fw / Shoot, dw / Shoot, fw / Whole plant, dw / Whole plant, fw: harvest 21 days; for Shoot/root, dw / Shoot/root, fw: ratio
Procedure: Statistical analysis was performed by means of 2-way ANOVA followed by Bonferoni's test for post hoc comparison. Results are given as mean values. Differences in the number of germinated seeds, coleoptile length, root length (Example 1) and growth of lettuce (Example 2) were assessed by Student's t-test for independent means. Results were considered significant when p<0.05.
The plant used was lettuce (Lactuca sativa), sort “Calgary” and non-disinfected ecological seeds were used. In the same manner as in Example 1, 150 seeds are germinated in oxytocin solution and 150 seeds are germinated in tap water, in both cases in darkness.
After germination for six days, the germs are put into 1 litre test vessels with four germs per vessel. To ten vessels are added oxytocin treated germs and to ten other vessels are added germs treated with tap water, giving totally eighty plants. Each vessel contains 1 litre 300 μM calcium sulphate solution. Other nutrients were added on the first and third day and from day five until harvest, 21 days after transferring germs to vessels. Increasing volumes from a stock nutrient solution (24 mM potassium, 2.5 mM magnesium, 22.3 mM ammonium, 4 mM phosphorus, 46.9 mM nitrate, 1 mM chlorine and trace elements) were supplied to meet the immediate nutrient demand of plants with a relative growth rate of 20% day^−1. Three days after the transport of the germs to the vessels, 1 mg of oxytocin was added to half of the oxytocin treated germs and to half of the germs treated with tap water giving a oxytocin concentration of 1 μg/ml. The growth phase experiment was performed in a climate chamber with 14 hours illumination per day at a temperature of 18° C. at light and at a temperature of 14° C. in darkness.
Accordingly, the eighty plants have been treated as follows:
20 plants (5 vessels each having 4 plants)—treated with tap water during germination and growth (denoted −ox/−ox);
20 plants (5 vessels each having 4 plants)—treated with oxytocin solution during germination and with tap water during growth (denoted +ox/−ox);
20 plants (5 vessels each having 4 plants)—treated with tap water during germination and with oxytocin solution during growth (denoted −ox/+ox);
20 plants (5 vessels each having 4 plants)—treated with oxytocin solution during germination and growth (denoted +ox/+ox).

[4] = 1 μg/ml aqueous oxytocin, 14 days darkness, 18° C.
[5] = 100 seeds per dish, 1 μg/ml aqueous oxytocin, 14 days darkness, 18° C.
[6] = versus tap water, 1 μg/ml oxytocin
[7] = +ox/+ox: oxytocin during germination and growth
[8] = +ox/−ox: oxytocin during germination only
[9] = −ox/+ox: oxytocin 1 μg/ml during growth only

oxytocin was tested. Which Coleoptile length [1, 4] did it give?
The Coleoptile length was 27.4 mm.

And the Root length [1, 4]?
The Root length was 36.0 mm.

And the “Germinated seeds (mean number)” value [1, 5]?
Its value is 97.0.

What about the “Effect on germination and growth of seeds (in words)” value [1, 6] of the same substance?
The value was “increased the number of germinated seeds and stimulated the growth of seeds”.

And the Coleoptile length [2, 4]?
The Coleoptile length was 39.1 mm.

What about the Root length [2, 4] of the same substance?
The Root length was 15.7 mm.

And the “Germinated seeds (mean number)” value [2, 5]?
Its value is 9.8.

And the “Effect on germination and growth of seeds (in words)” value [2, 6]?
The value was “only the increase in root length was significant”.

What about the “Root length compared with control (in words)” value ([3]; +ox/+ox: oxytocin available during the whole experiment period) of the same substance?
Its value is “inhibited”.

And the “Growth compared with control (−ox/−ox) (in words)” value (shortened to “Growth compared with control”) ([3]; +ox/+ox: oxytocin during both germination and growth)?
Its value is “no effects compared with control”.

What about the “Root, dm” value [3, 7] of the same substance?
Its value is 6.44b %.

What about the “Shoot, dm” value [3, 7] of the same substance?
The value was 13.34b %.

What about the Root length [3, 7] of the same substance?
The Root length was 21.00b cm.

What about the “Root, dw” value [3, 7] of the same substance?
The value was 0.126b g.

And the “Root, fw” value [3, 7]?
Its value is 1.94ab g.

What about the “Shoot, dw” value [3, 7] of the same substance?
The value was 0.596b g.

What about the “Shoot, fw” value [3, 7] of the same substance?
The value was 4.466a g.

And the “Whole plant, dw” value [3, 7]?
The value was 0.721b g.

And the “Whole plant, fw” value [3, 7]?
The value was 6.41ab g.

And the “Shoot/root, dw” value [3, 7]?
The value was 4.76a.

And the “Shoot/root, fw” value [3, 7]?
The value was 2.30a.

And the “Growth compared with control” value ([3]; +ox/−ox: oxytocin at germination)?
The value was “significant increase in growth”.

And the “Root, dm” value [3, 8]?
The value was 7.03a %.

And the “Shoot, dm” value [3, 8]?
The value was 14.06ab %.

And the Root length [3, 8]?
The Root length was 24.4a cm.

And the “Root, dw” value [3, 8]?
Its value is 0.141a g.

What about the “Root, fw” value [3, 8] of the same substance?
Its value is 2.03a g.

What about the “Shoot, dw” value [3, 8] of the same substance?
The value was 0.641ab g.

And the “Shoot, fw” value [3, 8]?
The value was 4.559a g.

And the “Whole plant, dw” value [3, 8]?
Its value is 0.782a g.

And the “Whole plant, fw” value [3, 8]?
The value was 6.59a g.

And the “Shoot/root, dw” value [3, 8]?
The value was 4.59a.

And the “Shoot/root, fw” value [3, 8]?
Its value is 2.24a.

And the “Root, dm” value [3, 9]?
Its value is 6.92ab %.

And the “Shoot, dm” value [3, 9]?
The value was 14.55a %.

What about the Root length [3, 9] of the same substance?
The Root length was 23.6a cm.

What about the “Root, dw” value [3, 9] of the same substance?
The value was 0.141a g.

What about the “Root, fw” value [3, 9] of the same substance?
Its value is 2.00a g.

What about the “Shoot, dw” value [3, 9] of the same substance?
The value was 0.656a g.

And the “Shoot, fw” value [3, 9]?
Its value is 4.508a g.

What about the “Whole plant, dw” value [3, 9] of the same substance?
The value was 0.797a g.

And the “Whole plant, fw” value [3, 9]?
Its value is 6.51ab g.

And the “Shoot/root, dw” value [3, 9]?
The value was 4.67a.

What about the “Shoot/root, fw” value [3, 9] of the same substance?
The value was 2.25a.

And the “Growth compared with control” value ([3]; −ox/+ox: oxytocin during growth in nutrient solution)?
The value was “significant increase in growth”.
